Assay results reported in US10912814B2, “Combination formulation of three antiviral compounds” (priority 2016, dated 2021).
Read-outs that look alike come from different tables or passages of the source.

Tests used:
[1] = Velpatasvir single and multiple oral dose pharmacokinetics; type: in vivo, human; conditions: for concentration at 24 h: human, plasma, oral, 5 mg, mean
Method: Following single and multiple oral doses of velpatasvir, maximum plasma concentrations occurred between 1.50 and 3.25 hours (median tmax).

[2] = Photostability (light exposure, ICH Q1B); type: physicochemical
Method: In some embodiments, and the Examples presented herein, the tablet formulation includes sofosbuvir having Form 6 and, optionally, a trace amount of Form 7.
Tablet cores and film-coated tablets were evaluated per ICH Q1B guidelines with a total of illumination of more than 1.2 million-lux hours and a total irradiance of more than 200 W·hr/m^2.

[3] = Storage stability: appearance, assay/label strength (LS), total impurities/degradation products; type: physicochemical; conditions: for physical and chemical stability: open container, 1 month at 40° C./75% RH
Method: In some embodiments, the film-coated tablets were packaged in 75 and 100 mL white HDPE bottles (Lots A and B, respectively, as described in Tables 11A, 11B) with 1 g silica gel desiccant canisters and a polyester fiber coil. The 75 and 100 mL HDPE bottles contained fourteen and twenty eight tablets, respectively. Each HDPE bottle was capped using a white, continuous thread, child-resistant polypropylene screw cap with an […], aluminum-faced line. The packaged tablets (14 and 28 counts) were evaluated for stability at 40° C./75% RH and 25° C./60% RH. Additionally, the 14-count bottles (without cap) were evaluated for stability under open conditions at 40° C./75% RH.
For each of the impact studies, the sofosbuvir/velpatasvir SSD/voxilaprevir SSD tablets were packaged in a designated commercial packaging configuration (28-count, 100 mL HPDE bottle, coil, 1 g desiccant), and stored for 12 weeks at 25° C./60% RH and 40° C./75% RH. Tablets were also packaged in open containers (28-count, 100 mL HPDE bottle without cap) and stored for 4 weeks at 40° C./75% RH and for 1 week at 50° C./92% RH.
The sofosbuvir/velpatasvir SSD/voxilaprevir SSD tablets were packaged in the designated commercial packaging configuration (28-count, 100 mL HPDE bottle, coil, 1 g desiccant), and stored for 6 months at 25° C./60% RH and 40° C./75% RH.

[4] = Tablet dissolution as a function of medium pH and composition (Apparatus II, 75 rpm, 900 mL, 37° C.); type: physicochemical; conditions: Formulation G tablets
[5] = BCS classification; type: physicochemical
[6] = Tablet dissolution in 50 mM sodium acetate buffer pH 5.0 with 2.0% w/v Polysorbate 80 and 0.001% w/v BHT, 75 rpm, 900 mL, 37° C., USP Type II; type: physicochemical; conditions: for dissolution at 30 minutes: after 4 weeks open at 40° C./75% RH
[7] = Oral bioavailability of crystalline voxilaprevir forms in a dog model; conditions: in vivo, read-out: oral bioavailability, less than that of crystalline Form VI
Method: (§1) As described previously, Form VIII of voxilaprevir is characterized by an X-ray powder diffractogram comprising the following peaks (±0.2°): at 7.8, 8.2, and 20.2°2θ, as determined on a diffractometer using Cu-Kα radiation.

[8] = Solubility (aqueous, spray-drying solvents); type: physicochemical
Description: (§2) In some embodiments, and the Examples presented herein, the tablet formulation includes sofosbuvir having Form 6 and, optionally, a trace amount of Form 7. […] Form 6 of sofosbuvir is the thermodynamically stable form and remains physically stable when suspended in water. Form 7 of Sofosbuvir, while physically stable in water for short periods of time, can be converted to Form 6 with prolonged stirring.
as §1
The selection of a suitable solvent for the spray drying process was based on (1) the solubility of voxilaprevir EAS, Form II and copovidone in the solvent, (2) the chemical stability of voxilaprevir EAS, Form II in the presence of the solvent, and (3) the impact of the solvent on feed solution properties and particle properties of the resulting solid dispersion. Acetone and dichloromethane were evaluated as solvents for the feed solution because of their low boiling points and the high solubility of voxilaprevir EAS, Form II (>300 mg/mL) in these solvents.

[9] = Hygroscopicity; type: physicochemical
Description: as §2
Voxilaprevir SSD is hygroscopic, with a reversible weight gain of 11% when cycled between 0% and 90% RH at 25° C.

## COC[C@H]1C[C@@H](c2ncc(-c3ccc4c(c3)COc3cc5c(ccc6nc([C@@H]7CC[C@H](C)N7C(=O)[C@@H](NC(=O)OC)C(C)C)[nH]c65)cc3-4)[nH]2)N(C(=O)[C@H](NC(=O)OC)c2ccccc2)C1 [Velpatasvir, methyl {(2S)-1-[(2S,5S)-2-(9-{2-[(2S,4S)-1-{(2R)-2-[(methoxycarbonyl)amino]-2-phenylacetyl}-4-(methoxymethyl)pyrrolidin-2-yl]-1H-imidazol-5-yl}-1,11-dihydroisochromeno[4′,3′:6,7]naphtho[1,2-d]imidazol-2-yl)-5-methylpyrrolidin-1-yl]-3-methyl-1-oxobutan-2-yl}carbamate]
[1]; dose range of 5 to 450 mg
  dose linearity of PK: nonlinear PK
[1]; multiple dose 5 mg, read-out: Ctau
  concentration at 24 h: 2.2 ng/mL
[1]; single dose 5 mg, read-out: Clast
  concentration at 24 h: 1.4 ng/mL
[2]; tablets film-coated to weight gains of 2.1 to 5.4%, ICH Q1B
  level of degradation products: 0.4%
[2]; uncoated tablet cores (Formulation G), ICH Q1B
  loss after exposure to light: up to 0.3%
[3]; packaged Formulation G tablets (Tables 11A, 11B), 40° C./75% RH and 25° C./60% RH for 6 months
  total impurities/degradation products: 0.0%
[3]; tablet Lots A-D from sub-potent/super-potent VEL SSD and VOX SSD, all conditions
  total impurities/degradation products: 0.0%
[3]; tablets from SSDs made with high-peroxide copovidone (544 ppm VEL SSD, 655 ppm VOX SSD)
  total impurities/degradation products: 0.0%
[3]; tablets from VEL SSD with 6.0% residual ethanol and VOX SSD with 2.1% residual acetone, all conditions
  total impurities/degradation products: 0.0%
[3]; tablets from VEL SSD with 7.0% and VOX SSD with 3.2% water content, all conditions
  total impurities/degradation products: 0.0%
[4]
  dissolution at 60 minutes in pH 4.0 and 5.0 containing 2.0% w/v polysorbate 80: complete dissolution
  dissolution in pH 2.0, 4.5 and 6.8 buffers, FaSSIF and FeSSIF: Incomplete dissolution
[5]
  aqueous solubility, pH dependence: pH-dependent solubility
[6]; SSD potency tablets Lot A
  dissolution at 30 minutes: 86%
[6]; SSD potency tablets Lot B
  dissolution at 30 minutes: 91%
[6]; tablets containing neat amorphous velpatasvir free base (physical mixture with copovidone)
  release at 30 minutes: 62%
[6]; tablets containing velpatasvir SSD
  release at 30 minutes: 91%

## CC[C@@H]1[C@@H]2CN(C(=O)[C@H](C(C)(C)C)NC(=O)O[C@@H]3C[C@H]3CCCCC(F)(F)c3nc4ccc(OC)cc4nc3O2)[C@@H]1C(=O)N[C@]1(C(=O)NS(=O)(=O)C2(C)CC2)C[C@H]1C(F)F [crystalline Form VIII]
[7]
  bioavailability: ~50%

## CC(C)OC(=O)[C@@H](C)N[P@](=O)(OC[C@H]1O[C@@H](n2ccc(=O)[nH]c2=O)[C@](C)(F)[C@@H]1O)Oc1ccccc1 [sofosbuvir Form 6]
[8]; water, 37° C., read-out: aqueous solubility
  solubility: ≥ 2 mg/mL
[9]
  hygroscopicity: non-hygroscopic
[2]
  photosensitivity: not photosensitive
[3]
  physical and chemical stability: physically and chemically stable

## CC(C)OC(=O)[C@@H](C)N[P@](=O)(OC[C@H]1O[C@@H](n2ccc(=O)[nH]c2=O)[C@](C)(F)[C@@H]1O)Oc1ccccc1 [sofosbuvir Form 7]
[9]
  hygroscopicity: non-hygroscopic
[2]
  photosensitivity: not photosensitive
[3]
  physical and chemical stability: physically and chemically stable

## CC[C@@H]1[C@@H]2CN(C(=O)[C@H](C(C)(C)C)NC(=O)O[C@@H]3C[C@H]3CCCCC(F)(F)c3nc4ccc(OC)cc4nc3O2)[C@@H]1C(=O)N[C@]1(C(=O)NS(=O)(=O)C2(C)CC2)C[C@H]1C(F)F [voxilaprevir EAS, Form II]
[8]; acetone and dichloromethane, organic solvent or mixture, read-out: solubility in acetone and dichloromethane
  solubility: > 300 mg/mL
